Laboratory results: paper PMC12169614, “Exploring Long Arm Amide-Linked Side Chains in the Design of Antifungal Azole Inhibitors of Sterol 14α-Demethylase (CYP51)” (Journal of Medicinal Chemistry, 2025)

How the values were obtained:
Y2411 Endog. ScCYP51 = experiment: MIC80 determination, strain Y2411; format: cell-based, S. cerevisiae; conditions: Saccharomyces cerevisiae
Description: (§1) Cells were seeded at an OD600 nm of 0.005 (1.5 × 10^4 CFU), and the plates were incubated at 30 °C with shaking at 200 rpm for 48 h for S. cerevisiae strains and 24 h for C. albicans . Cell growth was assessed by measuring the OD600 nm using a Synergy 2 multimode plate reader (BioTek Instruments, VT, USA). Each MIC80 was determined using triplicate measurements for pools of 4 clones of each strain in three separate experiments.

Y2300 OE ScCYP51 = experiment: MIC80 determination, strain Y2300; format: cell-based, S. cerevisiae; conditions: Saccharomyces cerevisiae
Description: as §1

Y2301 OE ScCYP51 Y140F = experiment: MIC80 determination, strain Y2301; format: cell-based, S. cerevisiae; conditions: Saccharomyces cerevisiae
Description: as §1

Y2513 OE ScCYP51 Y140H = experiment: MIC80 determination, strain Y2513; format: cell-based, S. cerevisiae; conditions: Saccharomyces cerevisiae
Description: as §1

Y2459 OE CaCYP51 CaCpr = experiment: MIC80 determination, strain Y2459; format: cell-based, S. cerevisiae
Description: as §1

Y525 OE CaMDR1a = experiment: MIC80 determination, strain Y525; format: cell-based, S. cerevisiae
Description: as §1

Y570 OE CaCDR1B = experiment: MIC80 determination, strain Y570; format: cell-based, S. cerevisiae
Description: as §1

Y71 SC5314 = experiment: MIC80 determination, C. albicans clinical isolate Y71 SC5314; format: cell-based; conditions: Candida albicans
Description: as §1

Y1 = experiment: MIC80 determination, C. albicans clinical isolate Y1; format: cell-based; conditions: Candida albicans, pH 7, 24 h
Description: as §1

Y610 FHB1 = experiment: MIC80 determination, C. albicans clinical isolate Y610 FHB1; format: cell-based; conditions: Candida albicans; C. albicans clinical isolate Y610 FHB1 (weakly expresses CaCDR1); pH 7, 24 h
Description: as §1

Y611 FHB3 = experiment: MIC80 determination, C. albicans clinical isolate Y611 FHB3; format: cell-based; conditions: Candida albicans, 24 h, pH 7
Description: as §1

Y2721 OE CpCYP51 = experiment: MIC80 determination, strain Y2721; format: cell-based, S. cerevisiae
Description: as §1

Y2716 OE CpCYP51 Y132F = experiment: MIC80 determination, strain Y2716; format: cell-based, S. cerevisiae
Description: as §1

Y2374 OE CgCYP51 = experiment: MIC80 determination, strain Y2374; format: cell-based, S. cerevisiae; conditions: Saccharomyces cerevisiae
Description: as §1

Y433 OE CgCDR1 = experiment: MIC80 determination, strain Y433; format: cell-based, S. cerevisiae; conditions: Saccharomyces cerevisiae
Description: as §1

2711 CnCYP51 OE CnCPR = experiment: MIC80 determination, strain 2711; format: cell-based, S. cerevisiae
Description: as §1

Y2649 OE CYP51 F1 RaCPR = experiment: MIC80 determination, strain Y2649; format: cell-based, S. cerevisiae
Description: as §1

Y2651 OE CYP51 F5 RaCPR = experiment: MIC80 determination, strain Y2651; format: cell-based, S. cerevisiae; conditions: Saccharomyces cerevisiae
Description: as §1

[1] = system: Y2746 OE AfCYP51A AfCPR AfERG6; experiment: MIC80 determination, strain Y2746; format: cell-based, S. cerevisiae; conditions: Saccharomyces cerevisiae
Description: as §1

[2] = system: Y2747 OE AfCYP51B AfCPR AfERG6; experiment: MIC80 determination, strain Y2747; format: cell-based, S. cerevisiae
Description: as §1

[3] = system: Y2301 ScCYP51 Y140F mutant; experiment: Agarose (disk) diffusion assay, strain Y2301; format: cell-based, S. cerevisiae; conditions: 10 nmol/disk, 30 °C, 48 h
Source text: (§2) Final compounds were screened as racemic mixtures using agarose diffusion assays to visualize their inhibitory activity against a panel of recombinant S. cerevisiae strains i.e., S. cerevisiae strains expressing control levels of wild-type CYP51 (ScCYP51), overexpressed wild-type ScCYP51, overexpressed azole-resistant ScCYP51 Y140F/H mutations and overexpressed C. albicans efflux pumps MDR1a or CDR1B (Figure and Table S1).
(§3) The susceptibilities of S. cerevisiae and Candida species strains to azole compounds were observed as zones of growth inhibition in agarose diffusion assays. The disk diffusion assays were carried out as described by Keniya et al. Complete supplement mixture (CSM) agarose (0.6% agarose [wt/vol]; 20 mL of synthetic defined medium (SD); pH 6.8–7) was solidified in a rectangular Petri dish which was overlaid with CSM agarose (0.6% [wt/vol]; 5 mL; pH 6.8–7) seeded with yeast cells at an optical density (OD600) of 0.008 (118,000 cells per 1 mL of overlay). Azole compounds (10 nmol/disk) were applied to sterile BBL paper disks (Becton Dickinson Co., Sparks, MD) and placed on solidified overlays. Cell growth was assessed after incubation at 30 °C for 48 h.

[4] = system: Y2513 ScCYP51 Y140H mutant; experiment: Agarose (disk) diffusion assay, strain Y2513; format: cell-based, S. cerevisiae; conditions: 10 nmol/disk, 30 °C, 48 h
Source text: as §2, §3

[5] = system: Y525 MFS efflux pump CaMDR1a overexpressed; experiment: Agarose (disk) diffusion assay, strain Y525; format: cell-based, S. cerevisiae; conditions: 10 nmol/disk, 30 °C, 48 h
Source text: as §2, §3

[6] = system: Y570 ABC efflux pump CaCDR1B overexpressed; experiment: Agarose (disk) diffusion assay, strain Y570; format: cell-based, S. cerevisiae; conditions: 10 nmol/disk, 30 °C, 48 h
Source text: as §2, §3

wild-type CaCYP51 = wild-type CaCYP51 (Candida albicans, UniProt P10613); experiment: Reconstituted CYP51 activity assay, wild type; format: biochemical, C. albicans; conditions: 1 μM CaCyp51, 50 μM lanosterol; duplicate, mean ± SD
Description: (§4) The reconstituted CYP51 assay previously described contained 1 μM CaCyp51, 2 μM Homo sapiens cytochrome P450 reductase and 50 μM lanosterol in a final volume of 500 μL. After the addition of azole in DMSO (2.5 μL), reactions were incubated at 37 °C for 10 min prior to initiation by the addition of 100 μL 20 mM β-NADPH-Na4. Sterol substrates and products were extracted with ethyl acetate, derivatized with N,O-bis(trimethylsilyl)-trifluoroacetamide (BSTFA)–trimethylchlorosilane (TMCS) (99:1) in the presence of anhydrous pyridine, and analyzed by GC/MS as described previously. IC50 determinations were performed in duplicate. Nonlinear regression of inhibitor concentration vs normalized response was calculated by GraphPad Prism 10.4.0 for Windows (GraphPad Software, Boston, Massachusetts, USA, www.graphpad.com).

CaCYP51 Y132H + K143R = CaCYP51 Y132H + K143R (Candida albicans, UniProt P10613, K143R/Y132H); experiment: Reconstituted CYP51 activity assay, Y132H + K143R; format: biochemical, C. albicans; conditions: 1 μM CaCyp51, 50 μM lanosterol; duplicate, mean ± SD
Description: as §4

CaCYP51 Y132F = CaCYP51 Y132F (Candida albicans, UniProt P10613, Y132F); conditions: footnote b; ref number not given; cited from earlier work
[7] = system: Y2411 azole sensitive control strain; experiment: Agarose (disk) diffusion assay, strain Y2411; format: cell-based, S. cerevisiae; conditions: 10 nmol/disk, 30 °C, 48 h
Source text: as §2, §3

[8] = system: Y2300 ScCYP51 overexpressed; experiment: Agarose (disk) diffusion assay, strain Y2300; format: cell-based, S. cerevisiae; conditions: 10 nmol/disk, 30 °C, 48 h
Source text: as §2, §3

CYP3A4 = CYP3A4 (Homo sapiens, UniProt P08684); set-up: method as in numbers not given; conditions: literature values for azole antifungals; ref numbers not given; cited from earlier work
[9] = Saccharomyces cerevisiae, 48 h, pH 6.8

wild-type CaCYP51, sequence (P10613 whole entry): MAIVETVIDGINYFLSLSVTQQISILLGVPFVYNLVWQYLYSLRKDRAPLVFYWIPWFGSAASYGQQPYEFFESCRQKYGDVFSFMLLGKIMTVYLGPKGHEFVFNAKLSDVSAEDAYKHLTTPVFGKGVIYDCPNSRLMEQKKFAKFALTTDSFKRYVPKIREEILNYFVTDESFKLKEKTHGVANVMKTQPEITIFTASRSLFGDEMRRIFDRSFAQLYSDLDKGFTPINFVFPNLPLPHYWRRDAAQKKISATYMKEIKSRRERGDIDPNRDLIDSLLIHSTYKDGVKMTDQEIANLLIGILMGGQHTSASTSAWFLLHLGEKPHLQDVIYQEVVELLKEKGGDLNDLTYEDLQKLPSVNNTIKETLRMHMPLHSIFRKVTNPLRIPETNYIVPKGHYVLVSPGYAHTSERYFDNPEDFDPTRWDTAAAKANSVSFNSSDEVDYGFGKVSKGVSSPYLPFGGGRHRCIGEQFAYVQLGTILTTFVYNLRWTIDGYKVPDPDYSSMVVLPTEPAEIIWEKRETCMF
CaCYP51 Y132F, sequence (P10613 whole entry Y132F, the tested form may be a part): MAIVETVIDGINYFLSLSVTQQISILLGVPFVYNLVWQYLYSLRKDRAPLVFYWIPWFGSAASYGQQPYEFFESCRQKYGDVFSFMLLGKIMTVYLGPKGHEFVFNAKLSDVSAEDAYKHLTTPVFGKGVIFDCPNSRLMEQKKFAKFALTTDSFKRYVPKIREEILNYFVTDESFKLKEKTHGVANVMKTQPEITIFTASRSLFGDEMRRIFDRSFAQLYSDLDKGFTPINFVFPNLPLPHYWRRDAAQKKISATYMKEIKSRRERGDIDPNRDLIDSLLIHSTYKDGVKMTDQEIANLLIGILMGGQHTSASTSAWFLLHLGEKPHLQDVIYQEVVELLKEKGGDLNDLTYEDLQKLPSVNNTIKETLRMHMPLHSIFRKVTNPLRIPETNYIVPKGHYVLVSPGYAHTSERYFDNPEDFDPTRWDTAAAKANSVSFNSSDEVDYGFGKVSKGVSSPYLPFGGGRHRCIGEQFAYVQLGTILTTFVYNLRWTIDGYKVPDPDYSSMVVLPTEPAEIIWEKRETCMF
CYP3A4, sequence (P08684 whole entry): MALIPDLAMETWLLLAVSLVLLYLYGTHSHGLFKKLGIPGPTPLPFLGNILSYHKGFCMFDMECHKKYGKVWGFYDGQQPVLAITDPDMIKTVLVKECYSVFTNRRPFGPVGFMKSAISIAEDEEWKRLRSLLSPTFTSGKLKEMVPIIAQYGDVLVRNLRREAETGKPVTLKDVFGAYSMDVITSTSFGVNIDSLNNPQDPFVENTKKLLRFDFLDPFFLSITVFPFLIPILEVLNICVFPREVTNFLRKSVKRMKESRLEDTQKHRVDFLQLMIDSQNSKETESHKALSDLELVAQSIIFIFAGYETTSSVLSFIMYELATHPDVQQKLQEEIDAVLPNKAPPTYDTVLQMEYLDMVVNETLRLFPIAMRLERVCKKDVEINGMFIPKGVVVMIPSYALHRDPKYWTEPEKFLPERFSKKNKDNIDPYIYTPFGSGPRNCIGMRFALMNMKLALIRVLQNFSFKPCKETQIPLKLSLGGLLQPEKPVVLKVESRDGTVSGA
CaCYP51 Y132H + K143R, sequence (P10613 whole entry Y132H/K143R): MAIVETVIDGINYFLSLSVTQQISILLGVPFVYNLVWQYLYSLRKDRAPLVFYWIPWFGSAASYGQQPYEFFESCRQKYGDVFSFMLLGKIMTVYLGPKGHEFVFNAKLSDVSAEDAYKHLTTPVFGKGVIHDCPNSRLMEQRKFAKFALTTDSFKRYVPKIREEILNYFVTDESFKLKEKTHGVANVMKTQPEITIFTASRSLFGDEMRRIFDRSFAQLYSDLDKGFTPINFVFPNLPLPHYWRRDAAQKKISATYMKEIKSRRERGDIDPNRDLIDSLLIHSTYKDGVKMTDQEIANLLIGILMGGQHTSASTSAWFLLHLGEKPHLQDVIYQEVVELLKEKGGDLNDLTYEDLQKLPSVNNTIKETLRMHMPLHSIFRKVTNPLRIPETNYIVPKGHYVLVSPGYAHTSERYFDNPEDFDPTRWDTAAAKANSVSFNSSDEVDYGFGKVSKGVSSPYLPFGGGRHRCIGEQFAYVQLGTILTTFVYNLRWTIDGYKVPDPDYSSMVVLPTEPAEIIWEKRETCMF

O=C(NCC(O)(Cn1cncn1)c1ccc(F)cc1F)c1ccc2cc(F)ccc2c1 (centres unmarked) [Compound 14, N-(2-(2,4-Difluorophenyl)-2-hydroxy-3-(1H-1,2,4-triazol-1-yl)propyl)-6-fluoro-2-naphthamide]
MIC80 (Y2411 Endog. ScCYP51; strain Y2411 Endog. ScCYP51, SD pH 6.8, 30 °C, 48 h): 0.015 ± 0.003 µM | MIC (Y2411 Endog. ScCYP51; supplement csv, read-out: MIC (nM) S. cerevisiae Y2411): 15 ± 3 nM | MIC80 (Y2300 OE ScCYP51; 48 h, pH 6.8): 0.048 ± 0.004 µM | MIC (Y2300 OE ScCYP51; read-out: MIC (nM) S. cerevisiae Y2300): 48 ± 4 nM | MIC80 (Y2301 OE ScCYP51 Y140F; 48 h, pH 6.8): 0.326 ± 0.048 µM | MIC (Y2301 OE ScCYP51 Y140F; read-out: MIC (nM) S. cerevisiae Y2301): 326 ± 48 nM | MIC80 (Y2513 OE ScCYP51 Y140H; 48 h, pH 6.8): 0.632 ± 0.123 µM | MIC (Y2513 OE ScCYP51 Y140H; read-out: MIC (nM) S. cerevisiae Y2513): 632 ± 123 nM | MIC80 (Y2459 OE CaCYP51 CaCpr; [9]): 0.054 ± 0.021 µM | MIC (Y2459 OE CaCYP51 CaCpr; read-out: MIC (nM) C. albicans model Y2459): 54 ± 21 nM | MIC80 (Y525 OE CaMDR1a; [9]): > 1 µM | MIC (Y525 OE CaMDR1a; read-out: MIC (nM) C. albicans model Y525): > 1000 nM | MIC (Y570 OE CaCDR1B; Candida albicans, read-out: MIC (nM) C. albicans model Y570): 33500 nM | MIC80 (Y570 OE CaCDR1B; [9]): 33.5 µM | MIC (Y71 SC5314; SC5314, supplement csv): 18 nM | MIC80 (Y71 SC5314; C. albicans clinical isolate Y71 SC5314, pH 7, 24 h): 0.018 µM | MIC80 (Y1): 0.01 µM | MIC80 (Y610 FHB1): 0.075 µM | MIC80 (Y611 FHB3): 2.4 µM | MIC80 (Y2721 OE CpCYP51; Saccharomyces cerevisiae): 0.024 µM | MIC (Y2721 OE CpCYP51; read-out: MIC (nM) C. parapsilosis model Y2721): 24 nM | increase in resistance owing to the CpCYP51 Y132F mutation (Y2716 OE CpCYP51 Y132F; MIC80 Y2716 versus Y2721): > 19 fold | MIC80 (Y2716 OE CpCYP51 Y132F; Saccharomyces cerevisiae): 1 µM | MIC80 (Y2374 OE CgCYP51): 0.047 ± 0.006 µM | MIC (Y2374 OE CgCYP51; read-out: MIC (nM) C. glabrate model Y2374): 47 ± 6 nM | MIC80 (Y433 OE CgCDR1): 9.2 ± 0.707 µM | MIC80 (2711 CnCYP51 OE CnCPR; Saccharomyces cerevisiae): 0.005 µM | MIC (2711 CnCYP51 OE CnCPR; read-out: MIC (nM) C. neoformans model Y2711): 5 nM | MIC (Y2649 OE CYP51 F1 RaCPR; Rhizopus arrhizus, read-out: MIC (nM) R. arrhizus model Y2649): 83 nM | MIC80 (Y2649 OE CYP51 F1 RaCPR; Saccharomyces cerevisiae): 0.083 µM | MIC80 (Y2651 OE CYP51 F5 RaCPR): 3.5 µM | MIC80 [1]: > 15 µM | MIC ([2]; Aspergillus fumigatus, read-out: MIC (nM) A. fumigatus model Y2747): 300 nM | MIC80 ([2]; Saccharomyces cerevisiae): 0.3 µM | zone of growth inhibition (inhibitory activity in words) [3]: showed activity | zone of growth inhibition (inhibitory activity in words) [4]: showed activity | zone of growth inhibition (inhibitory activity in words) [5]: reduced effect | zone of growth inhibition (inhibitory activity in words) [6]: no effect

OC(Cn1cncn1)(Cn1cncn1)c1ccc(F)cc1F [FLC, fluconazole, reference compound]
IC50 (wild-type CaCYP51): 0.335 ± 0.017 µM | IC50 (CaCYP51 Y132H + K143R): 25.7 ± 3.55 µM | IC50 (CaCYP51 Y132F): 0.606 ± 0.066 µM

O=C(Nc1ccc(CNC(=O)C(Cn2cncn2)c2ccc(F)cc2F)cc1)c1cccnc1 (centres unmarked) [Compound 47, N-(4-((2-(2,4-Difluorophenyl)-3-(1H-1,2,4-triazol-1-yl)propanamido)methyl)phenyl)nicotinamide]
zone of growth inhibition (inhibitory activity in words) [7]: poorly inhibited | zone of growth inhibition (inhibitory activity in words) [8]: did not inhibit

O[C@@](Cn1cnnn1)(c1ccc(F)cc1F)C(F)(F)c1ccc(-c2ccc(OCC(F)(F)F)cc2)cn1 [VT-1161, Oteseconazole]
IC50 (CYP3A4): 140 µM

O=C(Nc1ccc(CNC(=O)C(Cn2cncn2)c2ccc(F)cc2F)cc1)c1ccc(Cl)cc1 (centres unmarked) [Compound 44, 4-Chloro-N-(4-((2-(2,4-difluorophenyl)-3-(1H-1,2,4-triazol-1-yl)propanamido)methyl)phenyl)benzamide]
zone of growth inhibition (inhibitory activity in words) [7]: strongly inhibited | zone of growth inhibition (inhibitory activity in words) [8]: strongly inhibited | zone of growth inhibition (inhibitory activity in words) [3]: reduced activity | zone of growth inhibition (inhibitory activity in words) [4]: reduced activity | zone of growth inhibition (inhibitory activity in words) [5]: retained some inhibitory activity | zone of growth inhibition (inhibitory activity in words) [6]: not the CaCDR1B expressing strain
